From US9266876B2 (Actelion Pharmaceuticals Ltd., priority 2012, dated 2016)

Assays:
CXCR3 = CXCR3 (Homo sapiens (Human), UniProt P49682); experiment: Receptor internalization assay; type: cell-based; details: human whole blood; final CXCL10 concentration 9 nM; 30 min 37° C.; CXCR3 cell surface expression on CD3 positive cells, flow cytometer; read-out: Internalization IC50
How it was run: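 In human whole blood, compounds were incubated with CXCL10 (9 nM final) for 30 min at 37 °C to drive receptor internalization, then stained with anti-CXCR3/CD3 antibodies and lysed of red cells. Flow cytometry measured mean surface CXCR3 fluorescence on CD3+ cells, and IC50 came from single-site dose-response fits.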

human CXCR3A = human CXCR3A (Homo sapiens (Human), UniProt P49682); experiment: FLIPR assay; type: cell-based; details: CHO-K1 cells expressing the human CXCR3A coupled to Galpha(16); CXCL10 agonist 20 nM; Fluo-4-AM fluorescence; mean values if determined several times
Sequence of human CXCR3A (P49682 whole entry): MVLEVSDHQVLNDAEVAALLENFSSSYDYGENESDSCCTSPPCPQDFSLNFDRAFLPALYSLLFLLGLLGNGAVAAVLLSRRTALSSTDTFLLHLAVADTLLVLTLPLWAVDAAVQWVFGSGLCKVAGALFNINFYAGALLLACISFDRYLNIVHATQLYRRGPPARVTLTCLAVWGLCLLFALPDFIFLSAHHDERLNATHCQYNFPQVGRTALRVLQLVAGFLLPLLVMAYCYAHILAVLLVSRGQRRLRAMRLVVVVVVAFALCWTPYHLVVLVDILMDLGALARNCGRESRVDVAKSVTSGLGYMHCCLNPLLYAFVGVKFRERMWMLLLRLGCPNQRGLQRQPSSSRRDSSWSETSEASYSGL
How it was run: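 CHO-K1 cells expressing CXCR3A coupled to Gα16 were loaded with Fluo-4-AM for 1 h in Hepes-buffered HBSS, pH 7.4, with 5 mM probenecid. Compound dilutions were added on the FLIPR, followed by CXCL10 (added as a 20 nM solution). Baseline-subtracted peak fluorescence was fitted to a single-site curve for IC50.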

Sequence of CXCR3 (P49682 whole entry): as above

| SMILES | IC50 (CXCR3) [nM] | IC50 (human CXCR3A) [nM] |
| --- | --- | --- |
| C[C@@H]1CN(c2sc(C(F)(F)F)nc2-c2nc3cc(OCCO)ccc3[nH]2)CCN1C(=O)Cn1cnc2cccnc21 [Example 164, 1-((R)-4-{4-[5-(2-Hydroxy-ethoxy)-1H-benzoimidazol-2-yl]-2-trifluoromethyl-thiazol-5-yl}-2-methyl-piperazin-1-yl)-2-imidazo[4,5-b]pyridin-3-yl-ethanone] | 93 | 1 |
| CC(=O)c1ccc2[nH]c(-c3nc(C(F)(F)F)sc3N3CCN(C(=O)Cn4cnc5cccnc54)[C@H](C)C3)nc2c1 [Example 165, 1-{(R)-4-[4-(5-Acetyl-1H-benzoimidazol-2-yl)-2-trifluoromethyl-thiazol-5-yl]-2-methyl-piperazin-1-yl}-2-imidazo[4,5-b]pyridin-3-yl-ethanone] | 98 | 1 |
| CC(O)c1ccc2[nH]c(-c3nc(C(F)(F)F)sc3N3CCN(C(=O)Cn4cnc5cccnc54)[C@H](C)C3)nc2c1 (stereo partly drawn) [Example 166, 1-((R)-4-{4-[5-(1-Hydroxy-ethyl)-1H-benzoimidazol-2-yl]-2-trifluoromethyl-thiazol-5-yl}-2-methyl-piperazin-1-yl)-2-imidazo[4,5-b]pyridin-3-yl-ethanone] | 111 | 1 |
| COC(=O)c1ccc2[nH]c(-c3nc(C(F)(F)F)sc3N3CCN(C(=O)Cn4cnc5cccnc54)[C@H](C)C3)nc2c1 [Example 167, 2-{5-[(R)-4-(2-Imidazo[4,5-b]pyridin-3-yl-acetyl)-3-methyl-piperazin-1-yl]-2-trifluoromethyl-thiazol-4-yl}-1H-benzoimidazole-5-carboxylic acid methyl ester] | 140 | 1 |
| C[C@@H]1CN(c2sc(C(F)(F)F)nc2-c2nc3cc(C4(O)CC4)ccc3[nH]2)CCN1C(=O)Cn1cnc2cccnc21 [Example 168, 1-((R)-4-{4-[5-(1-Hydroxy-cyclopropyl)-1H-benzoimidazol-2-yl]-2-trifluoromethyl-thiazol-5-yl}-2-methyl-piperazin-1-yl)-2-imidazo[4,5-b]pyridin-3-yl-ethanone] | 435 | 3 |
| C[C@@H]1CN(c2sc(C(F)(F)F)nc2-c2nc3cccnc3[nH]2)CCN1C(=O)Cn1cnc2cccnc21 [Example 169, 2-Imidazo[4,5-b]pyridin-3-yl-1-{(R)-4-[4-(3H-imidazo[4,5-b]pyridin-2-yl)-2-trifluoromethyl-thiazol-5-yl]-2-methyl-piperazin-1-yl}-ethanone] | 685 | 0.3 |
| C[C@@H]1CN(c2sc(C(F)(F)F)nc2-c2nc3ccncc3[nH]2)CCN1C(=O)Cn1cnc2cccnc21 [Example 170, 2-Imidazo[4,5-b]pyridin-3-yl-1-{(R)-4-[4-(3H-imidazo[4,5-c]pyridin-2-yl)-2-trifluoromethyl-thiazol-5-yl]-2-methyl-piperazin-1-yl}-ethanone] | 1060 | 6 |
| C[C@@H]1CN(c2sc(C(F)(F)F)nc2-c2nc3cncnc3[nH]2)CCN1C(=O)Cn1cnc2cccnc21 [Example 171, 2-Imidazo[4,5-b]pyridin-3-yl-1-{(R)-2-methyl-4-[4-(9H-purin-8-yl)-2-trifluoromethyl-thiazol-5-yl]-piperazin-1-yl}-ethanone] | 1080 | 1 |
| C[C@@H]1CN(c2sc(C(F)(F)F)nc2-c2nc3ccccc3[nH]2)CCN1C(=O)Cn1cnc2ccccc21 [Example 172, 2-Benzoimidazol-1-yl-1-{(R)-4-[4-(1H-benzoimidazol-2-yl)-2-trifluoromethyl-thiazol-5-yl]-2-methyl-piperazin-1-yl}-ethanone] | 73 | 1 |
| C[C@@H]1CN(c2sc(C(F)(F)F)nc2-c2nc3ccccc3[nH]2)CCN1C(=O)Cn1cccn1 [Example 173, 1-{(R)-4-[4-(1H-Benzoimidazol-2-yl)-2-trifluoromethyl-thiazol-5-yl]-2-methyl-piperazin-1-yl}-2-pyrazol-1-yl-ethanone] | 395 | 0.5 |
| Cc1ccn(CC(=O)N2CCN(c3sc(C(F)(F)F)nc3-c3nc4ccccc4[nH]3)C[C@H]2C)n1 [Example 174, 1-{(R)-4-[4-(1H-Benzoimidazol-2-yl)-2-trifluoromethyl-thiazol-5-yl]-2-methyl-piperazin-1-yl}-2-(3-methyl-pyrazol-1-yl)-ethanone] | 53 | 0.2 |
| C[C@@H]1CN(c2sc(C(F)(F)F)nc2-c2nc3ccccc3[nH]2)CCN1C(=O)Cn1cc(Cl)cn1 [Example 175, 1-{(R)-4-[4-(1H-Benzoimidazol-2-yl)-2-trifluoromethyl-thiazol-5-yl]-2-methyl-piperazin-1-yl}-2-(4-chloro-pyrazol-1-yl)-ethanone] | 227 | 0.1 |
| Cc1ccnn1CC(=O)N1CCN(c2sc(C(F)(F)F)nc2-c2nc3ccccc3[nH]2)C[C@H]1C [Example 176, 1-{(R)-4-[4-(1H-Benzoimidazol-2-yl)-2-trifluoromethyl-thiazol-5-yl]-2-methyl-piperazin-1-yl}-2-(5-methyl-pyrazol-1-yl)-ethanone] | 111 | 0.1 |
| Cc1nc(C)n(CC(=O)N2CCN(c3sc(C(F)(F)F)nc3-c3nc4ccccc4[nH]3)C[C@H]2C)n1 [Example 178, 1-{(R)-4-[4-(1H-Benzoimidazol-2-yl)-2-trifluoromethyl-thiazol-5-yl]-2-methyl-piperazin-1-yl}-2-(3,5-dimethyl-[1,2,4]triazol-1-yl)-ethanone] | 224 | 2 |
| C[C@@H]1CN(c2sc(C(F)(F)F)nc2-c2nc3ccc(N4CCN(C)CC4)cc3[nH]2)CCN1C(=O)Cn1cccn1 [Example 179, 1-((R)-2-Methyl-4-{4-[6-(4-methyl-piperazin-1-yl)-1H-benzoimidazol-2-yl]-2-trifluoromethyl-thiazol-5-yl}-piperazin-1-yl)-2-pyrazol-1-yl-ethanone] | 138 | 2 |
| C[C@@H]1CN(c2sc(C(F)(F)F)nc2-c2nc3ccc(N(C)C)cc3[nH]2)CCN1C(=O)Cn1cccn1 [Example 180, 1-{(R)-4-[4-(6-Dimethylamino-1H-benzoimidazol-2-yl)-2-trifluoromethyl-thiazol-5-yl]-2-methyl-piperazin-1-yl}-2-pyrazol-1-yl-ethanone] | 703 | 2 |
| C[C@@H]1CN(c2sc(C(F)(F)F)nc2-c2nc3ccc(CN4CCCCC4)cc3[nH]2)CCN1C(=O)Cn1cccn1 [Example 181, 1-{(R)-2-Methyl-4-[4-(6-piperidin-1-ylmethyl-1H-benzoimidazol-2-yl)-2-trifluoromethyl-thiazol-5-yl]-piperazin-1-yl}-2-pyrazol-1-yl-ethanone] | 3090 | 58 |
| C[C@@H]1CN(c2sc(C(F)(F)F)nc2-c2nc3ccc(CN(C)C)cc3[nH]2)CCN1C(=O)Cn1cccn1 [Example 182, 1-{(R)-4-[4-(6-Dimethylaminomethyl-1H-benzoimidazol-2-yl)-2-trifluoromethyl-thiazol-5-yl]-2-methyl-piperazin-1-yl}-2-pyrazol-1-yl-ethanone] | 2240 | 27 |
| COC1CCN(Cc2ccc3nc(-c4nc(C(F)(F)F)sc4N4CCN(C(=O)Cn5cccn5)[C@H](C)C4)[nH]c3c2)C1 (stereo partly drawn) [Example 183, 1-((R)-4-{4-[6-(3-Methoxy-pyrrolidin-1-ylmethyl)-1H-benzoimidazol-2-yl]-2-trifluoromethyl-thiazol-5-yl}-2-methyl-piperazin-1-yl)-2-pyrazol-1-yl-ethanone] | 1440 | 15 |
